# Data as given in PMC7827014, “Synthetic Transition from Thiourea-Based Compounds to Tetrazole Derivatives: Structure and Biological Evaluation of Synthesized New N-(Furan-2-ylmethyl)-1H-tetrazol-5-amine Derivatives” (Molecules, 2021).
# Read-outs that look alike come from different tables or passages of the source.
# Assays:
# S. aureus NCTC 4163 = assay: MIC microdilution, standard strain; format: cell-based; settings: Staphylococcus aureus, NCTC4163; S. aureus NCTC 4163, 18 h, 35 °C; read-out: MIC
# [1] = test system: S. epidermidis T 5501 851/19; assay: MIC microdilution, clinical isolate; format: cell-based; settings: Staphylococcus epidermidis, T5501851/19
# [2] = test system: standard bacterial strains; assay: MIC, panel of standard bacterial strains; format: cell-based
# Experimental: (§1) Compounds were screened for their minimal inhibitory concentrations (MICs).
# (§2) The antimicrobial assays were conducted using reference strains of bacteria derived from international microbe collections—American Type Culture Collection (ATCC) and National Collection of Type Culture (NCTC). […] The antimicrobial activity of compounds was expressed by minimum inhibitory concentration values (MICs), according to CLCI reference procedures with some modifications. MIC was tested by the two-fold serial microdilution method (in 96-well microtiter plates) on MH II liquid medium. […] The stock solution of tested compounds was prepared in DMSO, and diluted in sterile medium (to a maximum of 1% of solvent content). […] Clinical microorganisms used in this study were obtained from the collection of the Department of Pharmaceutical Microbiology, Medical University of Warsaw, Poland.
# [3] = test system: hospital staphylococcal isolates; assay: MIC, panel of clinical staphylococcal isolates; format: cell-based
# Experimental: as §1, §2
# S. aureus 155/6 = assay: MIC microdilution, clinical isolate; format: cell-based; settings: Staphylococcus aureus
# [4] = test system: S. epidermidis ATCC 12228; assay: MIC microdilution, standard strain; format: cell-based; settings: Staphylococcus epidermidis, ATCC12228; S. epidermidis ATCC 12228, 18 h, 35 °C; read-out: MIC
# E. coli NCTC 8196 = assay: MIC microdilution, standard strain; format: cell-based; settings: Escherichia coli, NCTC8196; E. coli NCTC 8196, 18 h, 35 °C; read-out: MIC
# S. aureus T5591/68 = assay: MIC microdilution, clinical isolate; format: cell-based; settings: Staphylococcus aureus
# S. aureus T5384/48 = assay: MIC microdilution, clinical isolate; format: cell-based; settings: Staphylococcus aureus
# S. aureus ATCC 29213 = assay: MIC microdilution, standard strain; format: cell-based; settings: Staphylococcus aureus, ATCC29213; S. aureus ATCC 29213, 18 h, 35 °C; read-out: MIC
# S. aureus 203/19 = assay: MIC microdilution, clinical isolate; format: cell-based; settings: Staphylococcus aureus
# S. aureus 176/13 = assay: MIC microdilution, clinical isolate; format: cell-based; settings: Staphylococcus aureus
# [5] = test system: S. epidermidis KR 4358/2 840/19; assay: MIC microdilution, clinical isolate; format: cell-based; settings: Staphylococcus epidermidis, KR4358/2840/19
# [6] = test system: M. tuberculosis INH susceptible (Spec. 192); assay: In vitro antitubercular MIC; format: cell-based; settings: Mycobacterium tuberculosis, read-out: Minimal inhibitory concentration
# HTB-140 = assay: MTT assay 72 h; format: cell-based, human; settings: Homo sapiens; HTB-140, MTT 72 h, mean ± SD
# Experimental: (§3) The cell viability was assessed by using an enzymatic conversion of 3-(4,5-dimethylthiazol-2-yl)-2,5-diphenyltetrazolium bromide salt (MTT) to insoluble formazan crystals by mitochondrial dehydrogenases, occurring in living cells. Cells were cultured in 96-well plates at a density of l × 10^4 cells per well, and cultured to adhere for 24 h at 37 °C in a CO2 incubator. After 24 h of incubation, culture medium was replaced with a fresh medium, then cells were treated with various concentrations of the compounds and incubated for 72 h at 37 °C in a CO2 incubator. Untreated cells were used as the control. Subsequently, MTT solution (0,5 mg/mL in free-serum medium) was added, and samples were incubated for 4 h at 37 °C in a CO2 incubator. Then, the medium was aspirated, and formed formazan crystals were solubilized by adding an isopropanol-DMSO mixture (1:1 vol). The intensity of the dissolved crystals was measured using a UVM 340 reader (ASYS Hitech GmbH, Austria), at a wavelength of 570 nm. Cell viability was presented as a percent of MTT reduced in treated cells versus control cells (incubated without tested compounds). The relative MTT level (%) was calculated as [A]/[B]×100, where [A] is the absorbance of the test sample, and [B] is the absorbance of the control sample containing the untreated cells. The IC50 value was estimated using CalcuSyn version 1.0. […]
# (§4) Antiproliferative activity of tested compounds. Data are given as IC50 [µM] and SI.
# (§5) Human immortal keratinocyte cell line from adult human skin (HaCaT), Human colorectal adenocarcinoma (CaCo-2), Human epithelial lung carcinoma cell line (A549) and Human melanoma cell line (HTB-140). Data are expressed as mean ± SD. The SI (Selectivity Index) was calculated for each compound using formula: SI = IC50 for normal cel line / IC50 cancer cel line.
# A549 = assay: MTT assay 72 h; format: cell-based, human; settings: Homo sapiens; A549, MTT 72 h, mean ± SD; read-out: IC50
# Experimental: as §3, §4, §5
# HaCaT = assay: MTT assay 72 h; format: cell-based, human; settings: Homo sapiens; HaCaT normal cells, MTT 72 h, mean ± SD; read-out: IC50
# Experimental: as §3, §4, §5
# [7] = test system: S. epidermidis T 5399 848/19; assay: MIC microdilution, clinical isolate; format: cell-based; settings: Staphylococcus epidermidis, T5399848/19
# E. hirae ATCC 10541 = assay: MIC microdilution, standard strain; format: cell-based; settings: Enterococcus hirae, ATCC10541; E. hirae ATCC 10541, 18 h, 35 °C; read-out: MIC
# [8] = test system: S. epidermidis KR 4268 830/19; assay: MIC microdilution, clinical isolate; format: cell-based; settings: Staphylococcus epidermidis, KR4268830/19
# M. tuberculosis H37Rv = assay: In vitro antitubercular MIC; format: cell-based; settings: Mycobacterium tuberculosis, read-out: Minimal inhibitory concentration
# [9] = test system: S. epidermidis KR 4313 834/19; assay: MIC microdilution, clinical isolate; format: cell-based; settings: Staphylococcus epidermidis, KR4313834/19
# E. coli ATCC 25922 = assay: MIC microdilution, standard strain; format: cell-based; settings: Escherichia coli, ATCC25922; E. coli ATCC 25922, 18 h, 35 °C; read-out: MIC
# S. aureus T5595/69 = assay: MIC microdilution, clinical isolate; format: cell-based; settings: Staphylococcus aureus
# [10] = test system: S. epidermidis T 5253 845/19; assay: MIC microdilution, clinical isolate; format: cell-based; settings: Staphylococcus epidermidis, T5253845/19
# S. aureus T5241/46 = assay: MIC microdilution, clinical isolate; format: cell-based; settings: Staphylococcus aureus
# [11] = test system: S. epidermidis KR 4243 829/19; assay: MIC microdilution, clinical isolate; format: cell-based; settings: Staphylococcus epidermidis, KR4243829/19
# [12] = test system: S. epidermidis KR 4047 825/19; assay: MIC microdilution, clinical isolate; format: cell-based
# S. aureus T5403/51 = assay: MIC microdilution, clinical isolate; format: cell-based; settings: Staphylococcus aureus
# Caco-2 = assay: MTT assay 72 h; format: cell-based; settings: Homo sapiens; Caco-2, MTT 72 h, mean ± SD; read-out: IC50
# Experimental: as §3, §4, §5
structure (smiles),measurement,setting,value
"Fc1ccccc1-n1nnnc1NCc1ccco1 [Compound 6, 1-(2-fluorophenyl)-N-(furan-2-ylmethyl)-1H-tetrazol-5-amine]",MIC,S. aureus NCTC 4163,8 µg/mL
same,MIC,[1],2 µg/mL
same,MIC,[2]; some Gram-negative strains,16 µg/mL
same,MIC (range),[2]; standard Staphylococci,8 to 32 µg/mL
same,MIC,"[3]; Staphylococcus aureus, rest of studied Staphylococci, except S. aureus 155/6, read-out: MICs",8 µg/mL
same,MIC,"[3]; Staphylococcus epidermidis, four hospital S. epidermidis isolates, read-out: MIC",4 µg/mL
same,growth inhibitory strength relative to Ciprofloxacin,[3]; two clinical S. epidermidis strains,8–16 fold
same,MIC,S. aureus 155/6,16 µg/mL
same,MIC,[4],32 µg/mL
same,MIC,E. coli NCTC 8196,512 µg/mL
same,MIC,S. aureus T5591/68,8 µg/mL
same,MIC,S. aureus T5384/48,8 µg/mL
same,MIC,S. aureus ATCC 29213,8 µg/mL
same,MIC,S. aureus 203/19,8 µg/mL
same,MIC,S. aureus 176/13,8 µg/mL
same,MIC,[5],4 µg/mL
same,MIC,[6],512 µg/mL
same,IC50,HTB-140,> 100 µM
same,IC50,A549,> 100 µM
same,IC50,HaCaT,> 100 µM
same,MIC,[7],4 µg/mL
same,MIC,E. hirae ATCC 10541,16 µg/mL
same,MIC,[8],8 µg/mL
same,MIC,M. tuberculosis H37Rv,512 µg/mL
same,MIC,[9],4 µg/mL
same,MIC,E. coli ATCC 25922,16 µg/mL
same,MIC,S. aureus T5595/69,8 µg/mL
same,MIC,[10],8 µg/mL
same,MIC,S. aureus T5241/46,8 µg/mL
same,MIC,[11],4 µg/mL
same,strength relative to Ciprofloxacin,[12]; S. epidermidis KR 4047 825/19 isolate,half of the Ciprofloxacin strength
same,MIC,"[12]; Staphylococcus epidermidis, KR4047825/19, clinical isolate S. epidermidis KR 4047 825/19",8 µg/mL
same,MIC,S. aureus T5403/51,8 µg/mL
same,IC50,Caco-2,> 100 µM
